One assay concerns B16-F0 melanoma. As to the kind of experiment: Cytotoxicity assay, ATP detection, B16-F0. In kind it is cell-based, mouse. To be noted: B16-F0 cells in vitro; read-out: ED50 B16-F0. Here is the method:
(§1) The cytotoxicity tests were performed in 96-well microtiter plates (sterile white plates with clear bottom, Corning Costar Corporation, Cambridge, Mass., USA). The anthracyclines were pipetted into the plates in 10 μl of ethanol, pure ethanol was used for control plates. Daunorubicin and aclarubicin were used as positive controls. When the ethanol had evaporated, the cells were seeded into the plates in 100 μl of appropriate medium. The number of cells seeded per well was 2500 with MES-SA, 3000 with MES-SA/D×5, 3000 with LL/2, 2000 with B16-F0 and B16-F1, 2000 with KLN-205 and 8000 with MLTC-1. The ATP content of the cells was measured after incubating the cells for three days at 37° C. with 5% CO2.
(§2) The growth medium was removed by turning the plates over, and 200 μl of ATP extraction reagent, Somalyze, were added to the wells. The plates were then incubated for 30 minutes at room temperature. The ATP measurement was performed with Luminoskan luminometer (Labsystems Oy, Helsinki, Finland) at 22° C. 20 μl of ATP monitoring reagent containing luciferin and luciferase was dispensed, and an integral measurement of 10 s with 2 s lag time was performed for each well. All reagents used were supplied by Bio-Orbit Oy, Turku, Finland.
(§3) The direct luminometer output (in relative light units, RLUS) was used to calculate the cytotoxic effect. This light signal is directly proportional to the amount of […] in a wide range (determined with Bio-Orbit ATP standard, data not shown). On the other hand, the amount of ATP is directly proportional to the amount of living cells (Kangas et al., 1984). The results are expressed as percentages of the control value of untreated cells. An IC50 value (the drug concentration resulting to an ATP signal of 50% of the untreated control signal) was graphically estimated from the % of control vs. drug concentration plot.
(§4) H075-4a was also tested with several mouse cell lines in vitro (all were purchased from ATCC, Rockville, Md., USA): Lewis lung carcinoma (LL/2) (CRL-1642), B16-F0 melanoma (CRL-6322), B16-F1 melanoma (CRL-6323), KLN-205 lung squamous cell carcinoma (CRL-1453) and MLTC-1 leydig cell tumor (CRL-2065) using daunomycin, aclarubicin and H075-1a (MA 144U1) as references.
(§5) All cells grew as monolayers and were cultured at 37° C. with 5% CO2 according to ATCC standard instructions for each cell line: LL/2 in Dulbecco's modified Eagle's medium with 4.5 g/l glucose and 10% FCS, B16-F0 and B16-F1 in MEM (Eagle) in Earle's BSS with non-essential amino acids and 10% FCS, KLN-205 in MEM (Eagle) in Earle's BSS with non-essential amino acids and 10% FCS, MLTC-1 in RPMI 1640 with 25 mM HEPES and 10% FBS. All media were purchased from Gibco BRL, the serum was Gibco BRL Foetal Bovine Serum. […]

Another assay deals with B16-F1 melanoma. As to the kind of experiment: Cytotoxicity assay, ATP detection, B16-F1. In kind it is cell-based, mouse. To be noted: B16-F1 cells in vitro; read-out: ED50 B16-F1. Here is the method:
as §1, §2, §3, §4, §5

The next assay deals with SK-N-MC. As to the kind of experiment: Cytotoxicity assay, ATP detection, SK-N-MC. To be noted: SK-N-MC cells in vitro; read-out: ED50 SK-N-MC. It is filed as cell-based.
In assay [1] the test system is Lewis lung carcinoma (LL/2). Kind of assay: Cytotoxicity assay, ATP detection, LL/2. To be noted: LL/2 cells in vitro; read-out: ED50 LL/2. In kind it is cell-based, mouse. Here is the method: as §1, §2, §3, §4, §5
The test system of assay [2] is MES-SA/D×5 uterine sarcoma cells (doxorubicin-resistant, MDR). As to the kind of experiment: Cytotoxicity assay, luminescence ATP detection, MES-SA/D×5. To be noted: MES-SA/D×5 cells, three days incubation, ATP content; highest concentration 10^-5 M; read-out: ED50 (nM) MES-SA/D × 5. In kind it is cell-based, human. The procedure: (§6) The cytotoxicities of the new anthracyclines were tested in vitro with two cell lines: human uterine sarcomas MES-SA (CRL-1976; American Type Culture Collection (ATCC), Rockville, Md., USA) and MES-SA/D×5 (CRL-1977; ATCC, Rockville, Md., USA). MES-SA/D×5 has been developed by growing MES-SA cells in increasing concentrations of doxorubicin (Harker and Sikic, 1985).
(§7) Monolayer cultures were grown in McCoy's 5A medium with L-glutamine (Gibco BRL) supplemented with 10% FBS (Foetal Bovine Serum, Gibco BRL). No antibiotics were added. As the resistance is stable for at least 20 passages, the MES-SA/D×5 cells were grown without anthracycline selection (Harker and Sikic, 1985). Cells were maintained at 37° C. with 5% CO2 and subcultured every 3-5 days.
as §1, §2, §3

The test system of assay [3] is MES-SA human uterine sarcoma cells. Kind of assay: Cytotoxicity assay, luminescence ATP detection, MES-SA. In kind it is cell-based. To be noted: three days incubation, ATP content, highest concentration 10^-5 M, read-out: ED50 (nM) MES-SA. Here is the method: as §6, §7, §1, §2, §3
The subject of the next assay is MLTC-1 leydig cell tumor. As to the kind of experiment: Cytotoxicity assay, ATP detection, MLTC-1. In kind it is cell-based, mouse. To be noted: MLTC-1 cells in vitro; read-out: ED50 MLTC-1. The procedure:
as §1, §2, §3, §4, §5

Assay [4] deals with KLN-205 lung squamous cell carcinoma. Kind of assay: Cytotoxicity assay, ATP detection, KLN-205. To be noted: KLN-205 cells in vitro; read-out: ED50 KLN-205. It is filed as cell-based, mouse. Here is the method: as §1, §2, §3, §4, §5
Another assay relates to P388 leukemia. Kind of assay: Cytotoxic activity in vivo: P388 leukemia model. On the set-up: species or system mice. To be noted: 10^6 P388 cells i.p. day 0. The source says: P388 leukemia was maintained by serial intraperitoneal (i.p.) transplantations in DBA/2JBom female mice purchased from M & B A/S, Ry, Denmark. The animals were maintained at the facilities of Central Animal Laboratory, University of Turku. The management of the animal unit is based on and followed the guidelines: “European Convention for the protection of Vertebrate Animals used for Experimental and other Scientific Purposes, European Treaty Series No. 123 (EU No. 609/86), Official Journal of European Communities No. L 358, Strasbourg Nov. 24, 1986”, and “The Statute No. 1360/90 of the Finnish Law, Helsinki Dec. 21, 1990: Asetus kokeellisiin ja muihin tieteellisiin tarkoituksiin käytettävien selkärankaisten eläinten suojelemiseksi tehdyn eurooppalaisen yleissopimuksen voimaansaattamisesta. Suomen s{umlaut over (aa)}doskokoelma.”
The in vivo tests were started by injecting 10^6 P388 cells suspended in Dulbecco's phosphate buffered saline i.p. in mice on day 0. Groups of 3 mice were used. The drugs were administered i.p. on day 1 on the basis of individual body weight. The control group received vehicle (10% ethanol in Dulbecco's phosphate buffered saline).

Take `CCC1(O)CC(OC2CC(N(C)C)C(OC3CC(O)C(OC4CC(O)C(O)C(C)O4)C(C)O3)C(C)O2)c2c(cc3c(c2O)C(=O)c2c(O)cccc2C3=O)C1C(=O)OC` (stereo not drawn) [Akv-Rhn-dF-dF, aklavinone-rhodosamine-2-deoxyfucose-2-deoxyfucose]: the EC50 was found to be 14 nM with B16-F0 melanoma; 12 nM with B16-F1 melanoma; 30 nM in the assay with SK-N-MC; 38 nM in assay [1]; 540 nM in assay [2]; 6 nM in assay [3]. The EC50 with MLTC-1 leydig cell tumor amounted to 600 nM; in assay [4], 90 nM.
Take `CCC1(O)CC(OC2CC(N(C)C)C(OC3CC(O)C(OC4CC(O)C(O)C(C)O4)C(C)O3)C(C)O2)c2c(cc3c(c2O)C(=O)c2c(O)cccc2C3=O)C1O` (stereo not drawn) [Compound H075-2a]: the EC50 in [2] is greater than 10000 nM; in assay [3], 3200 nM.
Taken in the same sequence, the figures for `CCC1(O)CC(OC2CC(N(C)C)C(OC3CC(O)C(O)C(C)O3)C(C)O2)c2c(cc3c(c2O)C(=O)c2c(O)cccc2C3=O)C1O` (stereo not drawn) [Compound H075-2b] were greater than 10000 nM and 400 nM.
The matching figures for `CCC1(O)CC(OC2CC(O)C(OC3CC(O)C(OC4CC(O)C(O)C(C)O4)C(C)O3)C(C)O2)c2c(cc3c(c2O)C(=O)c2c(O)cccc2C3=O)C1O` (stereo not drawn) [Compound H075-2d]: greater than 10000 nM and greater than 10000 nM.
As to `COC(=O)C1c2cc3c(c(O)c2C(OC2CC(O)C(OC4CC(O)C(OC5CC(O)C(O)C(C)O5)C(C)O4)C(C)O2)CC1(C)O)C(=O)c1c(O)cccc1C3=O` (stereo not drawn) [Compound H075-3d], the EC50 in assay [2] and in [3] was greater than 10000 nM in each case.
In the case of `COC(=O)C1c2c(O)c3c(c(O)c2C(OC2CC(O)C(OC4CC(O)C(O)C(C)O4)C(C)O2)CC1(C)O)C(=O)c1c(O)cccc1C3=O` (stereo not drawn) [Compound H075-5e], the results for the EC50 in [2] and in assay [3] were greater than 10000 nM and 5200 nM, respectively.
As to `CC1OC(OC2C(C)OC(OC3CC(C)(O)C(O)c4cc5c(c(O)c43)C(=O)c3c(O)cccc3C5=O)CC2N(C)C)CC(O)C1O` (stereo not drawn) [Compound H075-6b], the values for the EC50 in assay [2] and in assay [3] were greater than 10000 nM and 200 nM, respectively.
The matching figures for `CC1OC(OC2CC(C)(O)C(O)c3cc4c(c(O)c32)C(=O)c2c(O)cccc2C4=O)CC(N(C)C)C1O` (stereo not drawn) [Compound H075-6c]: greater than 10000 nM and 4200 nM.
Taken in the same sequence, the figures for `CCC1(O)Cc2cc3c(c(O)c2C(OC2CC(N(C)C)C(OC4CC(O)C(OC5CC(O)C(O)C(C)O5)C(C)O4)C(C)O2)C1)C(=O)c1c(O)cccc1C3=O` (stereo not drawn) [Compound H075-8a] were greater than 10000 nM and 130 nM.
For `CCC1(O)CC(OC2CC(N(C)C)C(OC3CC(O)C(OC4CC(O)C(O)C(C)O4)C(C)O3)C(C)O2)c2c(O)c3c(c(O)c2C1O)C(=O)c1cccc(O)c1C3=O` (stereo not drawn) [Compound H075-10a], the EC50 in assay [2] amounted to 1300 nM; in [3] it was 30 nM. The results for the “Median survival days (range)” value with P388 leukemia (4 mg/kg i.p. on day 1), in the assay on P388 leukemia (8 mg/kg i.p. on day 1) and with P388 leukemia (16 mg/kg i.p. on day 1) were 15 (14-17) days, 14 (13-15) days and 14 (14-15) days, respectively.
For the molecule `CC1OC(OC2C(C)OC(OC3CC(C)(O)C(O)c4c(O)c5c(c(O)c43)C(=O)c3c(O)cccc3C5=O)CC2N(C)C)CC(O)C1O` (stereo not drawn) [Compound H075-11b], the figures for the EC50 in assay [2] and in assay [3] were 3500 nM and 60 nM, respectively. For the same molecule, the results for the “Median survival days (range)” value in the assay on P388 leukemia (4 mg/kg i.p. on day 1), in the assay on P388 leukemia (8 mg/kg i.p. on day 1) and with P388 leukemia (16 mg/kg i.p. on day 1) were 13 (12-13) days, 14 (13-15) days and 16 (15-19) days, respectively.
On to `CC1OC(OC2C(O)CC(OC3CC(C)(O)C(O)c4c(O)c5c(c(O)c43)C(=O)c3c(O)cccc3C5=O)OC2C)CC(O)C1O` (stereo not drawn) [Compound H075-11e], for which the EC50 is greater than 10000 nM in assay [2] and 800 nM in assay [3].

The values are drawn from patent US6399583B1, “Hybrid anthracyclines from genetically engineered streptomyces galilaeus strains, process for production and uses thereof” (Galilaeus Oy, priority 1998, dated 2002).
